The results in this text go back to US20210300940A1 (Merck Patent GmbH, priority 2018, published 2021).

Molecules are shown by their SMILES. Counter-ions that a name gives are not always drawn.

Experiment [1] addresses T1, TLR7 (Homo sapiens, UniProt Q9NYK1).
T1 construct: expressed in transfected cells; host or cells: HEK/293 cells carrying TLR7 and an NF-kB luciferase reporter
T1 sequence (Q9NYK1 27-1049): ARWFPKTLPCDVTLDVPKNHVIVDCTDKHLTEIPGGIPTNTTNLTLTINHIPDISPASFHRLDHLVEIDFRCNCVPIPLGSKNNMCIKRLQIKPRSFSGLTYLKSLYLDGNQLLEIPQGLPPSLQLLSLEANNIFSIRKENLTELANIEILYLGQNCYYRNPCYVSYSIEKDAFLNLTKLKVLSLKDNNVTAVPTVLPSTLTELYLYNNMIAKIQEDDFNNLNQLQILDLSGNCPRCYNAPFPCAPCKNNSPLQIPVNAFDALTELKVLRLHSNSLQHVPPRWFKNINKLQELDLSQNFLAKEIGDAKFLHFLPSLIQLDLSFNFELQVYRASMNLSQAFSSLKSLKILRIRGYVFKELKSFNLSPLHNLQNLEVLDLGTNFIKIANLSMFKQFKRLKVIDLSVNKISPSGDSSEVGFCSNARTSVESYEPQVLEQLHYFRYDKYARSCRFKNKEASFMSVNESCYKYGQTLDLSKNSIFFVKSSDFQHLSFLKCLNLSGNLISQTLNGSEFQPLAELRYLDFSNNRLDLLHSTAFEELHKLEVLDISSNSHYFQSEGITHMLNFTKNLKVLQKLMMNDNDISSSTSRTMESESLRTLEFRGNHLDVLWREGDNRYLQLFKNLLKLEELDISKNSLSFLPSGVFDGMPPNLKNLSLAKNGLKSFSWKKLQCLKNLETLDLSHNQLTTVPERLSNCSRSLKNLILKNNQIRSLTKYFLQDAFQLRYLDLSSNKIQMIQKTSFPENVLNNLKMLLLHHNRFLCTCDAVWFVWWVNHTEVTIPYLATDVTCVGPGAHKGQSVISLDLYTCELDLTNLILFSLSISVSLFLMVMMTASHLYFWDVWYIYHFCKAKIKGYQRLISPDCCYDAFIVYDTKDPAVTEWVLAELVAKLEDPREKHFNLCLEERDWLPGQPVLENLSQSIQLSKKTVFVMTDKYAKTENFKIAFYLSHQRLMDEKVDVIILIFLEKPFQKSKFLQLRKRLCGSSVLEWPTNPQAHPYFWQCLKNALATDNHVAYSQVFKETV
Nature of the experiment: HEK/293 TLR7 Cell Assay. It is filed as cell-based. As to conditions: TLR7/NFKb HEK cells, R848 agonist 10 uM final concentration, Steady-Glo readout; read-out: TLR7 potency. The essentials: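 TLR7/NF-κB reporter HEK293 cells, 5000/well, cultured 24 h, then preincubated 30 min with compound before R848 agonist (10 uM final). After 5 h stimulation, Steady-Glo luciferase luminescence read.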

Experiment [2] deals with T2, TLR8 (Homo sapiens, UniProt Q9NR97).
T2 construct: expressed in transfected cells; host or cells: HEK/293 reporter cells (NF-kB luciferase)
T2 sequence (Q9NR97 27-1041): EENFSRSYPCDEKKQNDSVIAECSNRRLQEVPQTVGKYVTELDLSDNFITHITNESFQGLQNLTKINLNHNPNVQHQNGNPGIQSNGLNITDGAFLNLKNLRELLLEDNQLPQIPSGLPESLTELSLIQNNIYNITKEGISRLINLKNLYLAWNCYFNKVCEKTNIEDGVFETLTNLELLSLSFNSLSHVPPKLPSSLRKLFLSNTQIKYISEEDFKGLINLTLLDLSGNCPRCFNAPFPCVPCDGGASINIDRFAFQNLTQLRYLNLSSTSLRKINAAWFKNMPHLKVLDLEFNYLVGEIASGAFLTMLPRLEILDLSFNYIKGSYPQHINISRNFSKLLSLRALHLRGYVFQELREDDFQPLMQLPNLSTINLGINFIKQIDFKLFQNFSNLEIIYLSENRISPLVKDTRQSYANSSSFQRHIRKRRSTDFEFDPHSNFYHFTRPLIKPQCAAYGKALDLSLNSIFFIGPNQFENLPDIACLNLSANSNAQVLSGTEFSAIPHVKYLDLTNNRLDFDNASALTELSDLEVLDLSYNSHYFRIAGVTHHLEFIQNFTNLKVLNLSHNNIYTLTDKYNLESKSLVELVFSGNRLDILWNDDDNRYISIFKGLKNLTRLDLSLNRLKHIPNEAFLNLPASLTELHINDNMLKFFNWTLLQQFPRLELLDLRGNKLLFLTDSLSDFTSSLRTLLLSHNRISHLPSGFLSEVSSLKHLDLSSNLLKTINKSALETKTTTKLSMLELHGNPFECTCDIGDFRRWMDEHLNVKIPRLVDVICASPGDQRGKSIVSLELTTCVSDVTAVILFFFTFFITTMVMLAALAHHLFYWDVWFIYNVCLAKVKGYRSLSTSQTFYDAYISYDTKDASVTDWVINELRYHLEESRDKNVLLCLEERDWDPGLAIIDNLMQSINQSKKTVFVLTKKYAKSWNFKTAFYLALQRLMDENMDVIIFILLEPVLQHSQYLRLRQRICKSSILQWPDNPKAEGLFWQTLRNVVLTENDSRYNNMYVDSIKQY
Description: HEK/293 TLR8 Cell Assay. It is filed as cell-based. The conditions noted are these: HEK cells, R848 agonist 30 uM final concentration, Steady-Glo readout; read-out: TLR8 potency.

For `C[C@H]1C[C@@H](NC(=O)[C@@H](N)C(C)(C)O)CN(c2ccc(C#N)c3nccnc23)C1` [Example 173, (S)-2-Amino-N-[(3R,5S)-1-(8-cyano-quinoxalin-5-yl)-5-methyl-piperidin-3-yl]-3-hydroxy-3-methyl-butyramide], the IC50 in experiment [1] and in experiment [2] was below 0.075 µM in each case.

In the case of `C[C@H]1C[C@@H](NC(=O)[C@H]2CCCN2)CN(c2ccc(C#N)c3nccnc23)C1` [Example 174, (R)-Pyrrolidine-2-carboxylic acid [(3R,5S)-1-(8-cyano-quinoxalin-5-yl)-5-methyl-piperidin-3-yl]-amide], the values for the IC50 in experiment [1] and in experiment [2] were above 0.15 µM and 0.075 to 0.15 µM, respectively.

On to `C[C@H]1C[C@@H](NC(=O)[C@@H]2CCCN2)CN(c2ccc(C#N)c3nccnc23)C1` [Example 175, (S)-Pyrrolidine-2-carboxylic acid [(3R,5S)-1-(8-cyano-quinoxalin-5-yl)-5-methyl-piperidin-3-yl]-amide], for which the IC50 was 0.075 to 0.15 µM in experiment [1] and below 0.075 µM in experiment [2].

Consider `C[C@H]1C[C@@H](NC(=O)[C@@H]2CCCN2)CN(c2ccc(C(F)(F)F)c3ncccc23)C1` [Example 176, (S)-Pyrrolidine-2-carboxylic acid [(3R,5S)-5-methyl-1-(8-trifluoromethyl-quinolin-5-yl)-piperidin-3-yl]-amide], for which the IC50 is 0.075 to 0.15 µM in experiment [1] and below 0.075 µM in experiment [2].

As for `C[C@H]1C[C@@H](NC(=O)[C@H]2CCCN2)CN(c2ccc(C(F)(F)F)c3ncccc23)C1` [Example 177, (R)-Pyrrolidine-2-carboxylic acid [(3R,5S)-5-methyl-1-(8-trifluoromethyl-quinolin-5-yl)-piperidin-3-yl]-amide], the figures for the IC50 in experiment [1] and in experiment [2] were 0.075 to 0.15 µM and below 0.075 µM, respectively.

Take `C[C@H]1C[C@@H](NC(=O)[C@@](C)(N)CO)CN(c2ccc(C(F)(F)F)c3ncccc23)C1` [Example 178, (S)-2-Amino-3-hydroxy-2-methyl-N-[(3R,5S)-5-methyl-1-(8-trifluoromethyl-quinolin-5-yl)-piperidin-3-yl]-propionamide]: the values for the IC50 in experiment [1] and in experiment [2] were above 0.15 µM and below 0.075 µM, respectively.

With `C[C@H]1C[C@@H](NC(=O)C2CCNCC2)CN(c2ccc(C(F)(F)F)c3ncccc23)C1` [Example 179, Piperidine-4-carboxylic acid [(3R,5S)-5-methyl-1-(8-trifluoromethyl-quinolin-5-yl)-piperidin-3-yl]-amide], the IC50 in experiment [1] and in experiment [2] was below 0.075 µM throughout.

Consider `C[C@H]1C[C@@H](NC(=O)C2(N)CCCNC2)CN(c2ccc(C(F)(F)F)c3ncccc23)C1` (stereo partly drawn) [Example 180, 3-Amino-piperidine-3-carboxylic acid [(3R,5S)-5-methyl-1-(8-trifluoromethyl-quinolin-5-yl)-piperidin-3-yl]-amide], for which the IC50 in experiment [1] and in experiment [2] was below 0.075 µM throughout.

As to `C[C@H]1C[C@@H](NC(=O)C2CCCCN2)CN(c2ccc(C(F)(F)F)c3ncccc23)C1` (stereo partly drawn) [Example 181, Piperidine-2-carboxylic acid [(3R,5S)-5-methyl-1-(8-trifluoromethyl-quinolin-5-yl)-piperidin-3-yl]-amide], the IC50 in experiment [1] and in experiment [2] was below 0.075 µM in each case.

On to `C[C@H]1C[C@@H](NC(=O)C2CCN(C(=O)[C@@H](N)[C@@H](C)O)CC2)CN(c2ccc(C(F)(F)F)c3ncccc23)C1` [Example 182, 1-((2S,3R)-2-Amino-3-hydroxy-butyryl)-piperidine-4-carboxylic acid [(3R,5S)-5-methyl-1-(8-trifluoromethyl-quinolin-5-yl)-piperidin-3-yl]-amide], for which the IC50 in experiment [1] and in experiment [2] was below 0.075 µM in each case.

For `N#Cc1ccc(N2C[C@H](NC(=O)C3CCCCN3)C[C@H](C(F)(F)F)C2)c2cccnc12` (stereo partly drawn) [Example 183, Piperidine-2-carboxylic acid [(3R,5S)-1-(8-cyano-quinolin-5-yl)-5-trifluoromethyl-piperidin-3-yl]-amide], the IC50 in experiment [1] and in experiment [2] was 0.075 to 0.15 µM in each case.

Turning to `C[C@@H](O)[C@H](N)C(=O)N1CCC(CC(=O)N[C@@H]2C[C@H](C(F)(F)F)CN(c3ccc(C#N)c4ncccc34)C2)CC1` [Example 184, 2-[1-((2S,3R)-2-Amino-3-hydroxy-butyryl)-piperidin-4-yl]-N-[(3R,5S)-1-(8-cyano-quinolin-5-yl)-5-trifluoromethyl-piperidin-3-yl]-acetamide], the IC50 in experiment [1] is above 0.15 µM; in experiment [2] it was 0.075 to 0.15 µM.

With `N#Cc1ccc(N2C[C@H](NC(=O)C3CCCNC3)C[C@H](C(F)(F)F)C2)c2cccnc12` (stereo partly drawn) [Example 185, Piperidine-3-carboxylic acid [(3R,5S)-1-(8-cyano-quinolin-5-yl)-5-trifluoromethyl-piperidin-3-yl]-amide], the IC50 in experiment [1] is above 0.15 µM; in experiment [2] it was 0.075 to 0.15 µM.

For the compound `C[C@H]1C[C@@H](NC(=O)CCN(C)C)CN(c2ccc(C(F)(F)F)c3ncccc23)C1` [Example 186, 3-Dimethylamino-N-[(3R,5S)-5-methyl-1-(8-trifluoromethyl-quinolin-5-yl)-piperidin-3-yl]-propionamide], the IC50 in experiment [1] and in experiment [2] was below 0.075 µM in each case.

For the compound `C[C@H]1C[C@@H](N)CN(c2cnc(C#N)c3nccnc23)C1` [Example 187, 8-((3R,5S)-3-Amino-5-methyl-piperidin-1-yl)-pyrido[3,4-b]pyrazine-5-carbonitrile hydrochloride], the IC50 in experiment [1] and in experiment [2] was below 0.075 µM in each case.

Take `C[C@H]1C[C@@H](NC(=O)CN2CCN(C)CC2)CN(c2cnc(C#N)c3nccnc23)C1` [Example 188, N-[(3R,5S)-1-(5-Cyano-pyrido[3,4-b]pyrazin-8-yl)-5-methyl-piperidin-3-yl]-2-(4-methyl-piperazin-1-yl)-acetamide]: the IC50 in experiment [1] and in experiment [2] was below 0.075 µM each time.

In the case of `C[C@H]1C[C@@H](NC(=O)CCC2CCN(C)CC2)CN(c2cnc(C#N)c3nccnc23)C1` [Example 189, N-[(3R,5S)-1-(5-Cyano-pyrido[3,4-b]pyrazin-8-yl)-5-methyl-piperidin-3-yl]-3-(1-methyl-piperidin-4-yl)-propionamide], the IC50 in experiment [1] was 0.075 to 0.15 µM; in experiment [2] it was below 0.075 µM.

For `CC(C(=O)N[C@@H]1C[C@H](C)CN(c2cnc(C#N)c3nccnc23)C1)N1CCN(C)CC1` (stereo partly drawn) [Example 190, N-[(3R,5S)-1-(5-Cyano-pyrido[3,4-b]pyrazin-8-yl)-5-methyl-piperidin-3-yl]-2-(4-methyl-piperazin-1-yl)-propionamide], the IC50 is 0.075 to 0.15 µM in experiment [1] and below 0.075 µM in experiment [2].
